The values that follow are results of earlier work, collected in patent publication US20140314667A1, “METHODS OF TREATING EPIDERMAL GROWTH FACTOR DELETION MUTANT VIII RELATED DISORDERS” (AMGEN INC., priority 2011, published 2014).

In data set [1] the test system is P388, L1210, and LY5178 murine leukemic cell suspensions. The following applies: in vitro; cited from earlier work.
Data set [2] has as its system L1210 mouse leukemia system, the human Lewis lung carcinoma system and the human B-16 melanocarcinoma system. The following applies: Kupchan 1974; cited from earlier work.
The subject of data set [3] is L1210 cells. The following applies: Sieber et al.; untreated control mitotic index 3.2 to 5.8%; cited from earlier work.
The conditions of data set [4]: U.S. Pat. No. 3,896,111; cited from earlier work.
For data set [5], the system named is human acute lymphoblastic leukemia line CEM. The following applies: in vitro, Wolpert-DeFillippes et al.; cited from earlier work.
For data set [6], the system named is P388 lymphocytic leukemia system. The following applies: Kupchan 1974; cited from earlier work.

Take `COc1cc2cc(c1Cl)N(C)C(=O)C[C@H](OC(=O)[C@H](C)N(C)C(C)=O)[C@]1(C)O[C@H]1[C@H](C)[C@@H]1C[C@@](O)(NC(=O)O1)[C@H](OC)/C=C/C=C(\C)C2` [Maytansine]: the inhibitory doses in data set [1] is on record as 10^−3 to 10^−1 µg/µl. In addition, the inhibitory activity result in data set [2] is reported as “significant inhibitory activity”. Besides, the “cells accumulating in mitosis” value in data set [3] is given as 67%. Moreover, the “more cytotoxic than conventional cancer chemotherapeutic agents like methotrexate, daunorubicin, and vincristine” value in data set [4] is recorded as 100 to 1000 fold. The inhibitory concentration in data set [5] is given as ≥ 10^−7 mg/ml. In data set [6], the “dosage range over which tumor growth was inhibited” value was 50- to 100 fold.
